{"source": "patent US20230364029A1", "about": "“POLYMORPHIC FORMS OF (R)-2-HYDROXY-2-METHYL-4-(2,4,5-TRIMETHYL-3,6-DIOXOCYCLOHEXA-1,4-DIENYL)BUTANAMIDE” (PTC THERAPEUTICS, INC., priority 2014, published 2023)", "key": {"[1]": {"tested_on": "cells from patients having a CoQ2 mutation (CoQ10 Deficiency)", "test": "Fibroblast screen similar to Example 12, CoQ10 Deficiency cells", "assay_type": "cell-based", "conditions": "Homo sapiens"}, "auditory HEI-OC 1 cells": {"tested_on": "auditory HEI-OC 1 cells", "test": "Protection from cisplatin-induced ototoxicity (caspase3/7 activity)", "assay_type": "cell-based, mice", "conditions": "overnight pretreatment, 24 hours of 50 uM cisplatin", "method": "The conditionally immortalized auditory HEI-OC 1 cells from long-term cultures of transgenic mice Immortomouse™ cochleas as described in Kalinec, G. et al., Audiol. Nerootol. 2003; 8, 177-189/. were maintained in high glucose Dulbecco’s modified Eagle medium (DMEM) containing 10% FBS under permissive conditions, 33° C., 10%CO2. Cells were pretreated overnight with (R)-2-hydroxy-2-methyl-4-(2,4,5-trimethyl-3,6-dioxocyclohexa-1,4-dienyl)butanamide, and apoptosis was detected by caspase3/7 activity after 24 hours of 50 uM cisplatin incubation. Cells incubated in diluent alone were the controls."}, "[2]": {"tested_on": "cells from patients having Amyotrophic Lateral Sclerosis (ALS) (Coriell ND29523)", "test": "Fibroblast screen similar to Example 12, ALS cells", "assay_type": "cell-based", "conditions": "Homo sapiens"}, "[3]": {"tested_on": "cells from patients having Rett’s Disorder (Coriell GM-17567)", "test": "Fibroblast screen similar to Example 12, Rett’s Disorder cells", "assay_type": "cell-based", "conditions": "Homo sapiens"}, "[4]": {"tested_on": "Human dermal fibroblasts from Friedreich’s Ataxia patients (GM04078)", "test": "Rescue of BSO-stressed FRDA fibroblasts", "assay_type": "cell-based", "conditions": "Friedrich’s Ataxia, Calcein AM viability", "method": "An initial screen was performed to identify compounds effective for the amelioration of redox disorders. Test samples were tested for their ability to rescue FRDA fibroblasts stressed by addition of L-buthionine-(S,R)-sulfoximine (BSO), as described in Jauslin et al., Hum. Mol. Genet. 11(24):3055 (2002), Jauslin et al., FASEB J. 17:1972-4 (2003), and International Patent Application WO 2004/003565.\nMEM (a medium enriched in amino acids and vitamins, catalog no. 1-31F24-I) and Medium 199 (M199, catalog no. 1-21F22-I) with Earle’s Balanced Salts, without phenol red, were purchased from Bioconcept. Fetal Calf Serum was obtained from PAA Laboratories. Basic fibroblast growth factor and epidermal growth factor were purchased from PeproTech. Penicillin-streptomycin-glutamine mix, L-buthionine (S,R)-sulfoximine, and insulin from bovine pancreas were purchased from Sigma. Calcein AM was purchased from Anaspec. […]\n100 microliters of PBS +Ca +Mg containing 1.2 micromolar Calcein AM were then added to each well. […] After that time fluorescence (excitation/emission wavelengths of 485 nm and 525 nm, respectively) was read on a Gemini fluorescence reader. […]"}, "[5]": {"tested_on": "cells from patients having Leigh Syndrome (Coriell GMOI503A)", "test": "Fibroblast screen similar to Example 12, Leigh Syndrome cells", "assay_type": "cell-based", "conditions": "Homo sapiens"}, "[6]": {"tested_on": "cells from patients having Huntington’s Disease (Coriell GM 04281)", "test": "Fibroblast screen similar to Example 12, Huntington’s Disease cells", "assay_type": "cell-based", "conditions": "Homo sapiens"}, "[7]": {"test": "Competitive slurries of Patterns A-F", "assay_type": "physicochemical", "conditions": "competitive slurry of Patterns A-F in 0.5% MC/water, ambient", "method": "Competitive slurry experiments of Patterns A, B, C, D, E and F were initiated in IPA, IPA/2% water and 0.5% Methyl Cellulose in water at ambient conditions as summarized in Table 16. Approximately 100 mg of the starting material, Pattern A, was added to a glass vial fitted with a magnetic stir bar. Solvent was added to the vial and allowed to slurry with Pattern A for 15 minutes before approximately 10-20 mg of each relative Pattern (B, C, D, E and F) was added to each vial."}, "[8]": {"tested_on": "cells from patients having Leber’s Hereditary Optic Neuropathy (LHON) (Coriell GM03858)", "test": "Fibroblast screen similar to Example 12, LHON cells", "assay_type": "cell-based", "conditions": "Homo sapiens"}, "[9]": {"tested_on": "cells from patients having Parkinson’s Disease (Coriell AG20439)", "test": "Fibroblast screen similar to Example 12, Parkinson’s Disease cells", "assay_type": "cell-based", "conditions": "Homo sapiens"}}}
{"smiles": "CC1=C(C)C(=O)C(CC[C@@](C)(O)C(N)=O)=C(C)C1=O", "note": "[(R)-2-hydroxy-2-methyl-4-(2,4,5-trimethyl-3,6-dioxocyclohexa-1,4-dienyl)butanamide]", "values": [{"measurement": "EC50", "setting": "[1]", "value": "< 0.1", "unit": "µM"}, {"measurement": "EC25", "setting": "auditory HEI-OC 1 cells", "value": "+++ (+++ indicates less than 100 micromolar)"}, {"measurement": "EC50", "setting": "[2]", "value": "< 0.1", "unit": "µM"}, {"measurement": "EC50", "setting": "[3]", "value": "< 0.1", "unit": "µM"}, {"measurement": "EC50", "setting": "[4]", "value": "< 0.1", "unit": "µM"}, {"measurement": "EC50", "setting": "[5]", "value": "< 0.1", "unit": "µM"}, {"measurement": "EC50", "setting": "[6]", "value": "< 0.1", "unit": "µM"}, {"measurement": "XRPD 24 hrs", "setting": "[7]", "value": "A/C"}, {"measurement": "EC50", "setting": "[8]", "value": "< 0.1", "unit": "µM"}, {"measurement": "EC50", "setting": "[9]", "value": "0.1 to 0.5", "unit": "µM"}]}
